Values quoted from earlier work, collected in patent EP2335686A1, “An aqueous intravenous nanosuspension with reduced adverse effects” (LEK Pharmaceuticals d.d., priority 2009, dated 2011).
Converted amounts (≈) assume the structure as drawn.

CC(C)c1cccc(C(C)C)c1O [propofol]
aqueous solubility at room temperature: 0.0164 µg/mL (≈ 0.092 µM)
